Laboratory results taken from patent US12435083B2, “Cyclopropyl-(hetero)aryl-substituted ethylsulphonyl-pyridine derivatives” (BOEHRINGER INGELHEIM VETMEDICA GMBH, priority 2021, dated 2025).
pEC50: −log10 of the molar value. Where two headings read alike, the source gives them in different places.

How the values were obtained:
[1] = tested on: adult Ctenocephalides felis fleas; test: Ingestion activity (flea membrane feeding, blood feeding) against adult Ctenocephalides felis; conditions: for activity against fleas (flea membrane feeding and flea contact assays), in words: in vitro profiling
From the text: Example 6: Screening Method to Test Ingestion Activity of Compounds of Formula (I) Against Adult Ctenocephalides felis
(§1) The four structurally closest prior art compounds (A), (B), (C) and (D) specifically excluded from the scope of formula (I) were characterized vis-a-vis selected compounds of formula (I) with regard to their potency in in vitro screening assays against fleas (Ctenocehalides felis) and ticks (Rhipicephalus sanguineus).
It is important to note that compounds that show better activity versus ticks are more desirable in the animal health field, as ticks are more difficult to control than fleas. Noteworthy, in particular with regard to fleas the illustrated comparative data are based on a flea membrane feeding (ingestion, blood feeding) assay. Data from this assay are more relevant for compounds intended to be delivered systemically to an animal via oral or injectable routes. Membrane feeding assays differ to primary screening laboratory contact assays in that the latter only measure the effect of the direct contact of selected compounds on the parasite, such as the flea or the tick. The information derived from laboratory contact assays is strictly limited to the ability of the compound to be absorbed through the parasite surface and to reach its molecular target, and no information can be gleaned from these contact assays as to whether the compound would also be active when presented orally to the ectoparasite itself in a blood meal, such as with the membrane feeding assay, and certainly not when administered orally to an animal host (e.g. “in vivo”) with subsequent exposure to the ectoparasite.
(§2) However, as explained above, spectrum of action against this range of species (i.e. fleas and ticks) is a desirable property of ectoparasiticides for veterinary use. In the following table 1 comparative experimental data of the in vitro assays are shown regarding flea membrane feeding (ingestion, blood feeding) activity against Ctenocephalides felis and contact activity against Rhipicephalus sanguineus.

[2] = tested on: adult Rhipicephalus sanguineus ticks; test: Contact activity against adult Rhipicephalus sanguineus (coated vial, mortality at 48 h); conditions: for activity against ticks (tick contact assay), in words: in vitro profiling
Protocol: Example 5: Screening Method to Test Contact Activity of Compounds of Formula (I) Against Adult Rhipicephalus sanguineus
Compounds of formula (I) formulated in 100% DMSO were diluted in a solution containing acetone and Triton X-100 (0.02%). The resulting formulation was used to coat the inner walls of glass scintillation vials and the filter paper covering the cap of the vial. Once dried, ten adult R. sanguineus ticks were added to the vials. The vials were incubated at 24° C., 95% relative humidity, and 12 hours of light/12 hours of dark until evaluation. Ticks were visually evaluated for mortality at 48 hours post-treatment. Compound efficacy at a given dose is expressed as percentage mortality. A dose response series was implemented to determine EC50 values.
as §1, §2

[3] = tested on: adult Ctenocephalides felis fleas; test: Contact activity against adult Ctenocephalides felis (treated surface, motility by machine vision, 24 h); conditions: treated surface, 24h, read-out: EC80 (% motility reduction, adult C. felis, contact)
From the text: Example 7: Screening Method to Test Contact Activity of Compounds of Formula (I) Against Adult Ctenocephalides felis

Plutella xylostella = test: Insecticidal test on Plutella xylostella (Chinese cabbage seedling dip); conditions: 144 h, 500 ppm, seedling dip, 6 days after dip treatment, read-out: activity level (corrected mortality rate), Plutella xylostella
Protocol: Example 12: Insecticidal Test on Plutella xylostella
The compounds of formula (I) of the present invention or salts thereof were separately dispersed in water and diluted to 500 ppm. Ten adults of Plutella xylostella were released onto Chinese cabbage seedlings and allowed to lay eggs thereon. 2 days after the release of the adults, the seedling was dipped in the dispersion for about 30 seconds. After air dried, the seedling was kept in a room at 25° C. 6 days after the dip treatment, the numbers of the dead and alive insects were counted. The corrected mortality rate was calculated according to the following formula and the insecticidal activity was evaluated according to the following criteria. Corrected mortality rate (%)=100×(Survival rate in an untreated plot−Survival rate in a treated plot)/Survival rate in an untreated plot • A: the corrected mortality rate is 100% • B: the corrected mortality rate is 90 to 99% • C: the corrected mortality rate is 80 to 89% • D: the corrected mortality rate is 50 to 79%

[4] = Ctenocephalides felis, 24 h, flea membrane feeding (ingestion, blood feeding) assay, EC80, read-out: C. felis membrane feeding (ingestion/blood feeding) activity EC80
[5] = Rhipicephalus sanguineus, contact assay, >100 μM = not active at the top concentration, read-out: R. sanguineus contact activity EC50
[6] = Ctenocephalides felis, bovine blood, 24h post treatment, read-out: EC80 (% motility reduction, adult C. felis, ingestion via membrane feeding)
[7] = Rhipicephalus sanguineus, 48 hours post-treatment, coated vial, read-out: EC50 (percentage mortality, adult R. sanguineus, contact)
[8] = flea membrane feeding (ingestion, blood feeding) assay, EC80, read-out: C. felis membrane feeding (ingestion/blood feeding) activity EC80
[9] = contact assay, >100 μM = not active at the top concentration, read-out: R. sanguineus contact activity EC50
[10] = flea membrane feeding (ingestion, blood feeding) assay, EC80

## CCS(=O)(=O)c1cc(-c2ccc(C3(C#N)CC3)cc2)cnc1-n1ncc2ccc(C(F)(F)F)cc2c1=O [(A), reference compound]
[1]; [4]
  EC80: > 10 µM
[1]; Ctenocephalides felis
  activity against fleas (flea membrane feeding and flea contact assays), in words: some activity
[2]; Rhipicephalus sanguineus
  activity against ticks (tick contact assay), in words: no activity
[2]; [5]
  pEC50: < 4.00

## CCS(=O)(=O)c1cc(-c2ccc(C3(C#N)CC3)cc2)cnc1-n1nc2ccc(C(F)(F)F)cn2c1=O [(B), reference compound]
[1]; [4]
  EC80: > 10 µM
[1]; Ctenocephalides felis
  activity against fleas (flea membrane feeding and flea contact assays), in words: some activity
[2]; Rhipicephalus sanguineus
  activity against ticks (tick contact assay), in words: no activity
[2]; [5]
  pEC50: < 4.00

## CCS(=O)(=O)c1cc(-c2nc(C)cc(C3CC3)n2)cnc1-c1nc2cc(C(F)(F)F)ncc2n1C [(C), reference compound]
[1]; [4]
  EC80: > 10 µM
[1]; Ctenocephalides felis
  activity against fleas (flea membrane feeding and flea contact assays), in words: some activity
[2]; Rhipicephalus sanguineus
  activity against ticks (tick contact assay), in words: no activity
[2]; [5]
  pEC50: < 4.00

## CCS(=O)(=O)c1cc(-c2ccc(C3CC3)cn2)cnc1-n1ncc(OCC(F)(F)C(F)(F)F)cc1=O [(D), reference compound]
[1]; [4]
  EC80: > 10 µM
[1]; Ctenocephalides felis
  activity against fleas (flea membrane feeding and flea contact assays), in words: some activity
[2]; Rhipicephalus sanguineus
  activity against ticks (tick contact assay), in words: no activity
[2]; [5]
  pEC50: < 4.00

## CCS(=O)(=O)c1cc(-c2cc(C3CC3)ccn2)cnc1-c1nc2cc3c(cc2n1C)OC(F)(F)O3 [Compound 14, 6-(4-cyclopropyl-5′-(ethylsulfonyl)-[2,3′-bipyridin]-6′-yl)-2,2-difluoro-5-methyl-5H-[1,3]dioxolo[4′,5′:4,5]benzo[1,2-d]imidazole]
[3]
  EC80: 1 to 10 µM

## CCS(=O)(=O)c1cc(-c2ccc(C3CC3)cc2)cnc1-n1cc2ccc(C(F)(F)F)cc2n1 [Compound 46, 2-[5-(4-cyclopropylphenyl)-3-(ethanesulfonyl)pyridin-2-yl]-6-(trifluoromethyl)indazole]
[1]; [4]
  EC80: 1 to 10 µM
[1]; [6]
  EC80: 1 to 10 µM
[2]; [7]
  pEC50: 4.00 to 5.00
[2]; [5]
  pEC50: 4.00 to 5.00

## CCS(=O)(=O)c1cc(-c2ccc(C3CC3)cc2)cnc1-n1cc2ncc(C(F)(F)F)cc2n1 [Compound 48, 5-(4-cyclopropylphenyl)-3-(ethanesulfonyl)-2-[6-(trifluoromethyl)pyrazolo[4,3-b]pyridin-2-yl]pyrid-ine]
[3]
  EC80: 1 to 10 µM

## CCS(=O)(=O)c1cc(-c2ccc(C3CC3)cc2)cnc1-c1cc2n(C(F)F)cc(C(F)(F)F)cc-2n1 [Compound 97]
[1]; [4]
  EC80: < 1 µM
[2]; [5]
  pEC50: 4.00 to 5.00
Plutella xylostella
  mortality at 500 ppm: 100%

## CCS(=O)(=O)c1cc(-c2ccc(C3CC3)cc2)cnc1-c1ncc(OCC(F)(F)C(F)(F)F)c(=O)n1C [Compound 110, 2-[5-(4-cyclopropylphenyl)-3-(ethanesulfonyl)pyridin-2-yl]-3-methyl-5-(2,2,3,3,3-pentafluoropropoxy)pyrimidin-4-one]
[3]
  EC80: 1 to 10 µM

## CCS(=O)(=O)c1cc(-c2ccc(C3(F)CC3)nc2)cnc1-c1nc2cc(C(F)(F)F)n(C3CC3)c(=O)c2n1C [Compound 176, 5-cyclopropyl-2-[5-(ethanesulfonyl)-6′-(1-fluorocyclopropyl)-[3,3′-bipyridin]-6-yl]-3-methyl-6-(trifluoromethyl)imidazo[4,5-c]pyridin-4-one]
[1]; [6]
  EC80: 1 to 10 µM
[2]; [7]
  pEC50: 4.00 to 5.00

## CCS(=O)(=O)c1cc(-c2ccc(C3CC3)cc2)cnc1-n1ncc2ncc(C(F)(F)C(F)(F)F)cc21 [Compound 191, 5-(4-cyclopropylphenyl)-3-(ethanesulfonyl)-2-[6-(1,1,2,2,2-pentafluoroethyl)-1H-pyrazolo[4,3-b]pyridin-1-yl]pyridine]
Plutella xylostella
  mortality at 500 ppm: 100%

## C=CCn1cc(C(F)(F)F)cc2nc(-c3ncc(-c4ccc(C5(C#N)CC5)cc4)cc3S(=O)(=O)CC)c(F)c1-2 [Compound 198, 1-{4-[5-(ethanesulfonyl)-6-[3-fluoro-4-(prop-2-en-1-yl)-6-(trifluoromethyl)pyrrolo[3,2-b]pyridin-2-yl]pyridin-3-yl]phenyl}cyclopropane-1-carbonitrile]
[1]; [6]
  EC80: 1 to 10 µM

## CCS(=O)(=O)c1cc(-c2ccc(C3CC3)cc2)cnc1-c1nc2cc(C(F)(F)F)cn(CC(F)F)c-2c1F [compound 12]
[1]; [8]
  EC80: <1 µM
[2]; [9]
  pEC50: 4.00 to 5.00

## CCS(=O)(=O)c1cc(-c2ccc(C3(C#N)CC3)cc2)cnc1-c1nc2cc(C(F)(F)C(F)(F)F)cnc2n1C [compound 80]
[1]; [8]
  EC80: <1 µM
[2]; [9]
  pEC50: 4.00 to 5.00

## CCS(=O)(=O)c1cc(-c2ccc(C3(C#N)CC3)cc2)cnc1-c1nc2cc(C(F)(F)F)n(C3CC3)c(=O)c2n1C [compound 88]
[1]; [10]
  C. felis membrane feeding (ingestion/blood feeding) activity EC80: 1 to 10 µM
[2]; [9]
  pEC50: 4.00 to 5.00

## CCS(=O)(=O)c1cc(-c2ccc(C3CC3)nc2)cnc1-c1nc2cc(C(F)(F)F)n(C3CC3)c(=O)c2n1C [compound 89]
[1]; [10]
  C. felis membrane feeding (ingestion/blood feeding) activity EC80: 1 to 10 µM
[2]; [9]
  pEC50: 4.00 to 5.00

## CCn1cc(C(F)(F)F)cc2nc(-c3ncc(-c4cccc(C5CC5)n4)cc3S(=O)(=O)CC)cc1-2 [compound 113]
Plutella xylostella
  mortality at 500 ppm: 100%

## CCS(=O)(=O)c1cc(-c2ccc(C3(F)CC3)cc2)cnc1-c1nc2cc(C(F)(F)F)n(C3CC3)c(=O)c2n1C [compound 124]
[1]; [10]
  C. felis membrane feeding (ingestion/blood feeding) activity EC80: 1 to 10 µM
[2]; [9]
  pEC50: 4.00 to 5.00

## CCS(=O)(=O)c1cc(-c2ccc(C3(C#N)CC3)nc2)cnc1-c1nc2cc(C(F)(F)F)n(C3CC3)c(=O)c2n1C [compound 133]
[1]; [10]
  C. felis membrane feeding (ingestion/blood feeding) activity EC80: 1 to 10 µM
[2]; [9]
  pEC50: 4.00 to 5.00

## CCS(=O)(=O)c1cc(-c2ccc(C3CC3(F)F)cc2)cnc1-c1nc2cc(C(F)(F)C(F)(F)F)nnc2n1C (stereo not shown) [compound 135]
[1]; [10]
  C. felis membrane feeding (ingestion/blood feeding) activity EC80: 1 to 10 µM
[2]; [9]
  pEC50: 4.00 to 5.00

## CCS(=O)(=O)c1cc(-c2cc(C3CC3)nc(C)n2)cnc1-c1nc2cc(C(F)(F)C(F)(F)F)nnc2n1C [compound 142]
[1]; [10]
  C. felis membrane feeding (ingestion/blood feeding) activity EC80: 1 to 10 µM
[2]; [9]
  pEC50: 4.00 to 5.00

## CCS(=O)(=O)c1cc(-c2ccc(C3CC3)nn2)cnc1-c1nc2cc(C(F)(F)C(F)(F)F)cnc2n1C [compound 153]
[1]; [10]
  C. felis membrane feeding (ingestion/blood feeding) activity EC80: 1 to 10 µM
[2]; [9]
  pEC50: 4.00 to 5.00

## CCS(=O)(=O)c1cc(-c2nccc(C3CC3)n2)cnc1-c1nc2cc(C(F)(F)C(F)(F)F)cnc2n1C [compound 165]
[1]; [8]
  EC80: <1 µM
[2]; [9]
  pEC50: 4.00 to 5.00

## CCS(=O)(=O)c1cc(-c2cc(C3CC3)nc(C)n2)cnc1-c1nc2cc(C(F)(F)C(F)(F)F)cnc2n1C [compound 166]
[1]; [8]
  EC80: <1 µM
[2]; [9]
  pEC50: 4.00 to 5.00

## CCS(=O)(=O)c1cc(-c2cccnc2C2CC2)cnc1-c1nc2cc(C(F)(F)C(F)(F)F)cnc2n1C [compound 169]
[1]; [10]
  C. felis membrane feeding (ingestion/blood feeding) activity EC80: 1 to 10 µM
[2]; [9]
  pEC50: 4.00 to 5.00

## CCS(=O)(=O)c1cc(-c2ccc(C3CC3)nc2)cnc1-c1nc2cc(SC(F)(F)F)nnc2n1C [compound 186]
[1]; [8]
  EC80: <1 µM
[2]; [9]
  pEC50: > 5.00

## CCn1c(=O)c(C(F)(F)F)cc2nc(-c3ncc(-c4ccc(C5CC5)cc4)cc3S(=O)(=O)CC)n(C)c21 [compound 214, 2-[5-(4-cyclopropylphenyl)-3-(ethanesulfonyl)pyridin-2-yl]-4-ethyl-3-methyl-6-(trifluoromethyl)-3H,4H,5H-imidazo[4,5-b]pyridin-5-one]
[1]; [6]
  EC80: < 1 µM
